Experimental data from ChEMBL document CHEMBL3885861, “Open TG-GATES”.

Species on record: Rattus norvegicus
Experiment: Open TG-GATES - Regimen: Single
Type: toxicity, organism-based, Sprague-Dawley
Design: regimen Single, gender Male, age 6 weeks
Settings: in vivo, po, 20 mg/kg, route gavage, dose level Middle; for Eos / Fbg / Hb / Ht / Lym / MCH / MCHC / MCV / Mono / Neu / PT / Plat / RBC / WBC / APTT / Bas: tissue Blood; for KIDNEY_L / KIDNEY_R / KIDNEY_TOTAL: tissue Kidney; for LIVER: tissue Liver; for ALT / AST / BUN / CRE / Cl / DBIL / GLC / IP / LDH / Na / RALB / TBIL / TC / TG / TP / gamma-GTP: tissue Plasma

## CC/C(=C(\c1ccccc1)c1ccc(OCCN(C)C)cc1)c1ccccc1 [TAMOXIFEN]
3 h
  Eos: 1%
  Fbg: 267 mg/dL
  Hb: 13 g/dL
  Ht: 39.3%
  Lym: 78%
  MCH: 21 pg
  MCHC: 33%
  MCV: 63.8 fL
  Mono: 4.2%
  Neu: 16.6%
  PT: 12.1 s
  Plat: 116.7 x10_4/uL
  RBC: 616 x10_4/ul
  WBC: 103.9 x10_2/uL
  KIDNEY_L: 0.8 g
  KIDNEY_R: 0.8 g
  KIDNEY_TOTAL: 1.6 g
  LIVER: 8.4 g
  ALT: 51 IU/L
  AST: 81.2 IU/L
  BUN: 10.4 mg/dL
  CRE: 0.2 mg/dL
  Cl: 106.6 meq/L
  DBIL: 0.016 mg/dL
  GLC: 178.8 mg/dL
  IP: 9.8 mg/dL
  LDH: 56 IU/L
  Na: 140 meq/L
  RALB: 2.6 g/dL
  TBIL: 0.052 mg/dL
  TC: 91.8 mg/dL
  TG: 86 mg/dL
  TP: 5.5 g/dL
  gamma-GTP: 1.2 IU/L
6 h
  TERMINAL_BW: 192.3 g
  APTT: 18.2 s
  Bas: 0%
  Eos: 1.2%
  Fbg: 269.4 mg/dL
  Hb: 13.2 g/dL
  Ht: 39.4%
  Lym: 73.8%
  MCH: 21.3 pg
  MCHC: 33.5%
  MCV: 63.7 fL
  Mono: 4.2%
  Neu: 20.4%
  PT: 12.1 s
  Plat: 107 x10_4/uL
  RBC: 618.2 x10_4/ul
  WBC: 64.9 x10_2/uL
  KIDNEY_L: 0.8 g
  KIDNEY_R: 0.8 g
  KIDNEY_TOTAL: 1.6 g
  LIVER: 7.7 g
  ALT: 43.4 IU/L
  AST: 82.8 IU/L
  BUN: 8 mg/dL
  CRE: 0.2 mg/dL
  Cl: 109 meq/L
  DBIL: 0.008 mg/dL
  GLC: 175.8 mg/dL
  IP: 10.7 mg/dL
  LDH: 92.4 IU/L
  Na: 141.8 meq/L
  RALB: 2.6 g/dL
  TBIL: 0.048 mg/dL
  TC: 82.2 mg/dL
  TG: 45.4 mg/dL
  TP: 5.4 g/dL
  gamma-GTP: 1.4 IU/L
9 h
  TERMINAL_BW: 194.8 g
  APTT: 16.1 s
  Bas: 0%
  Eos: 1%
  Fbg: 252.6 mg/dL
  Hb: 12.7 g/dL
  Ht: 38%
  Lym: 74.4%
  MCH: 21.6 pg
  MCHC: 33.3%
  MCV: 64.9 fL
  Mono: 2.8%
  Neu: 21.6%
  PT: 12.4 s
  Plat: 114.1 x10_4/uL
  RBC: 585.4 x10_4/ul
  WBC: 73.4 x10_2/uL
  KIDNEY_L: 0.8 g
  KIDNEY_R: 0.8 g
  KIDNEY_TOTAL: 1.7 g
  LIVER: 7.1 g
  ALT: 40 IU/L
  AST: 75.8 IU/L
  BUN: 8.6 mg/dL
  CRE: 0.2 mg/dL
  Cl: 107.6 meq/L
  DBIL: 0.008 mg/dL
  GLC: 178.8 mg/dL
  IP: 11 mg/dL
  LDH: 46 IU/L
  Na: 141.4 meq/L
  RALB: 2.4 g/dL
  TBIL: 0.042 mg/dL
  TC: 61.8 mg/dL
  TG: 35.4 mg/dL
  TP: 5.1 g/dL
  gamma-GTP: 1 IU/L
24 h
  TERMINAL_BW: 194.8 g
  APTT: 16.8 s
  Bas: 0%
  Eos: 1.2%
  Fbg: 232.8 mg/dL
  Hb: 12.7 g/dL
  Ht: 38.5%
  Lym: 79%
  MCH: 21.3 pg
  MCHC: 33%
  MCV: 64.5 fL
  Mono: 2.4%
  Neu: 17.2%
  PT: 12.8 s
  Plat: 117 x10_4/uL
  RBC: 597.6 x10_4/ul
  WBC: 83.2 x10_2/uL
  KIDNEY_L: 0.9 g
  KIDNEY_R: 0.9 g
  KIDNEY_TOTAL: 1.8 g
  LIVER: 8.7 g
  ALT: 52.2 IU/L
  AST: 79.2 IU/L
  BUN: 13 mg/dL
  CRE: 0.2 mg/dL
  Cl: 109.6 meq/L
  DBIL: 0.016 mg/dL
  GLC: 186 mg/dL
  IP: 8.3 mg/dL
  LDH: 64 IU/L
  Na: 143.2 meq/L
  RALB: 2.6 g/dL
  TBIL: 0.038 mg/dL
  TC: 60.2 mg/dL
  TG: 84.6 mg/dL
  TP: 5.4 g/dL
  gamma-GTP: 1.4 IU/L
